PubChem BioAssay AID1918956 (Molecular Pharmacology Branch, DTP, NCI, 2023)

Tested on: OVCAR-5 complex spheroids, viability
Test: Anticancer human tumor OVCAR-5 cell line growth inhibition;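 note: spheroids exposed to agents for seven days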
Details: for IC50: curve of first compound; for viability, T/C: stronger effect = lower value; active = viability on the fitted dose curve at most 10% of control; inactive = the rest
Source text: Multicellular complex tumor spheroid response to LSD1 Inhibitor Iadademstat in combination with a variety of drugs and investigational agents in selected tumor cell lines
The current study was undertaken to assess response to LSD1 inhibitors in combination with standard-of-care drugs and investigational agents in solid tumor complex spheroid models as well as in the K-562 leukemia. Complex spheroids include a stromal component modeled by human endothelial cells (HUVEC) and fibroblasts modeled by human mesenchymal stem cells (MSCs). The concentration ranges selected for each drug and investigational agent were based upon clinically achievable concentrations if the clinical Cmax of the agent was known.
Compounds. The drugs and investigational agents used in this study are listed on Table 1. All of the agents used, including staurosporine (NSC755774) and gemcitabine (NSC613327), were obtained from the Developmental Therapeutics Program, NCI. FDA-approved anticancer drugs are available from the NCI at http://dtp.nci.nih.gov/branches/dscb/oncology_drugset_explanation.html. Drugs and investigational agents were >95% pure by proton nuclear magnetic resonance (NMR) and liquid chromatography/mass spectrometry (LC/MS). Stock solutions were prepared at 400x in DMSO, stored at -70 degrees C, and diluted in fresh medium prior to their use. The final concentration of DMSO in cell culture wells never exceeded 0.25% (v/v). The FDA-approved anticancer drug set is available from the Developmental Therapeutics Program at https://dtp.cancer.gov/organization/dscb/obtaining/available_plates.htm. All drugs and investigational agents were tested over a range starting from a high concentration at or near the clinical Cmax and decreasing in half-log increments. If the clinical Cmax for an agent had not been determined, the highest concentration tested was 10 microM.
Cell Lines. The patient-derived cancer cell (PDC) lines: 292921-168-R-J2-PDC, K24384-001-R-PDC, and 521955-158-R2-J5-PDC pancreatic carcinomas, 556581-035-R-J1 ovarian carcinoma, 324938-238-R-J1-PDC, 855422-203-R-J1-PDC and 883617-216-R-J1-PDC urothelial bladder carcinomas, 743489-274-T-PDC renal cell carcinoma, 138582-R-J1 Merkel cell tumor, K60290-347-R-J1 and K57222-313-R-J1-PDC glioblastomas, 653999-131-R-J2-PDC, LG0703-F948-PDC, and 349418-098-R-PDC non-small cell lung carcinomas, 885512-296-R-J2-PDC, 171881-019-R-J1-PDC breast carcinomas and 186277-243-T-J2-PDC and 233499-124-R-J2-PDC colon carcinomas were obtained from the NCI Patient-Derived Models Repository (PDMR, https://pdmr.cancer.gov). The established cell lines NCI/ADR-RES (RRID:CVCL_14520 and OVCAR-5 (RRID:CVCL_1628) ovarian carcinomas, 786-O (RRID:CVCL_1051) and A498 […] renal cell carcinoma, NCI-H211 (ATCC, cat. CRL-5824; RRID:CVCL_1529), NCI-H196 (ATCC, cat. CRL-5823, RRID:CVCL_1509), SW 1271 (ATCC, cat. CRL-2177, RRID:CVCL_1716) and NCI-H1876 (ATCC, cat. CRL-5902, RRID:CVCL_1503) small cell lung carcinomas, MDA-MB-231 (RRID:CVCL_0062) and MDA-MB-468 (RRID:CVCL_0419)breast carcinomas (10-12). Pooled donor human umbilical vein endothelial cells (HUVEC, Lonza, cat. CC-2519) and human mesenchymal stem cells (hMSC, Lonza, cat. PT-2501) were purchased from Lonza (Walkersville, MD).
Cell Culture. All cells were maintained in an incubator at 37 degrees C and 5% CO2 with 95% humidity. The PDC lines were cultured according to standard operating procedures established by the NCI PDMR (https://pdmr.cancer.gov). Briefly all PDCs were thawed and cultured in Matrigel-coated flasks prepared with a working solution of 1X Ham's F-12 nutrient mix, without supplementation (Invitrogen, Waltham, MA, cat. 11765054), 100 U/mL penicillin-streptomycin (Invitrogen, cat. 15140122), and 2.5% Matrigel (Corning Inc., Corning, NY, cat. 354248) for the first three passages. […]

[1] = second compound 0.1 µM, first compound 0.00949 µM
[2] = second compound 0.1 µM, first compound 0.03 µM
[3] = second compound 0.1 µM, first compound 0.0949 µM
[4] = second compound 0.1 µM, first compound 0.3 µM
[5] = second compound 0.316 µM, first compound 0.00949 µM
[6] = second compound 0.316 µM, first compound 0.03 µM
[7] = second compound 0.316 µM, first compound 0.0949 µM
[8] = second compound 0.316 µM, first compound 0.3 µM
[9] = second compound 1 µM, first compound 0.00949 µM
[10] = second compound 1 µM, first compound 0.03 µM
[11] = second compound 1 µM, first compound 0.0949 µM
[12] = second compound 1 µM, first compound 0.3 µM
[13] = second compound 3.16 µM, first compound 0.00949 µM
[14] = second compound 3.16 µM, first compound 0.03 µM
[15] = second compound 3.16 µM, first compound 0.0949 µM
[16] = second compound 3.16 µM, first compound 0.3 µM
[17] = second compound 10 µM, first compound 0.00949 µM
[18] = second compound 10 µM, first compound 0.03 µM
[19] = second compound 10 µM, first compound 0.0949 µM
[20] = second compound 10 µM, first compound 0.3 µM

CC[C@@]1(O)C(=O)OCc2c1cc1n(c2=O)Cc2cc3c(CN(C)C)c(O)ccc3nc2-1 + NC1CC1c1ccc(-c2cccc(O)c2)cc1
3.4 nM: IC50 (second compound 0.316 µM)
3.05 nM: IC50 (second compound 0.1 µM)
inactive: viability, T/C (second compound 0.1 µM, first compound 0.000316 µM) 96.1% | viability, T/C (second compound 0.1 µM, first compound 0.001 µM) 83.5% | viability, T/C (second compound 0.1 µM, first compound 0.00316 µM) 47.5% | viability, T/C (second compound 0.1 µM, first compound 0.01 µM) 32.3% | viability, T/C (second compound 0.1 µM, first compound 0.0316 µM) 35.6% | viability, T/C (second compound 0.1 µM, first compound 0.1 µM) 18.8% | viability, T/C (second compound 0.316 µM, first compound 0.000316 µM) 102% | viability, T/C (second compound 0.316 µM, first compound 0.001 µM) 87.3% | viability, T/C (second compound 0.316 µM, first compound 0.00316 µM) 48.9% | viability, T/C (second compound 0.316 µM, first compound 0.01 µM) 34.3% | viability, T/C (second compound 0.316 µM, first compound 0.0316 µM) 33% | viability, T/C (second compound 0.316 µM, first compound 0.1 µM) 19.8% | viability, T/C (second compound 1 µM, first compound 0.000316 µM) 101% | viability, T/C (second compound 1 µM, first compound 0.001 µM) 78.3% | viability, T/C (second compound 1 µM, first compound 0.00316 µM) 38.6% | viability, T/C (second compound 1 µM, first compound 0.01 µM) 30.5% | viability, T/C (second compound 1 µM, first compound 0.0316 µM) 34.4% | viability, T/C (second compound 1 µM, first compound 0.1 µM) 18.4% | viability, T/C (second compound 3.16 µM, first compound 0.000316 µM) 88.1% | viability, T/C (second compound 3.16 µM, first compound 0.001 µM) 78.8% | viability, T/C (second compound 3.16 µM, first compound 0.00316 µM) 37.9% | viability, T/C (second compound 3.16 µM, first compound 0.01 µM) 33.1% | viability, T/C (second compound 3.16 µM, first compound 0.0316 µM) 33.4% | viability, T/C (second compound 3.16 µM, first compound 0.1 µM) 18.7% | viability, T/C (second compound 10 µM, first compound 0.000316 µM) 93.3% | viability, T/C (second compound 10 µM, first compound 0.001 µM) 75.6% | viability, T/C (second compound 10 µM, first compound 0.00316 µM) 40.1% | viability, T/C (second compound 10 µM, first compound 0.01 µM) 31.8% | viability, T/C (second compound 10 µM, first compound 0.0316 µM) 37.7% | viability, T/C (second compound 10 µM, first compound 0.1 µM) 20.7%
2.27 nM: IC50 (second compound 3.16 µM)
2.31 nM: IC50 (second compound 1 µM)
2.32 nM: IC50 (second compound 10 µM)

COc1cc(C2c3cc4c(cc3C(OC3OC5COC(C)OC5C(O)C3O)C3COC(=O)C23)OCO4)cc(OC)c1O (stereo not given) + NC1CC1c1ccc(-c2cccc(O)c2)cc1
407 nM: IC50 (second compound 0.1 µM)
422 nM: IC50 (second compound 3.16 µM)
inactive: viability, T/C [1] 94.9% | viability, T/C [2] 93.3% | viability, T/C [3] 80.2% | viability, T/C [4] 55.3% | viability, T/C (second compound 0.1 µM, first compound 0.949 µM) 36.1% | viability, T/C (second compound 0.1 µM, first compound 3 µM) 32.5% | viability, T/C [5] 96.7% | viability, T/C [6] 109% | viability, T/C [7] 91.8% | viability, T/C [8] 61.7% | viability, T/C (second compound 0.316 µM, first compound 0.949 µM) 35.8% | viability, T/C (second compound 0.316 µM, first compound 3 µM) 32.3% | viability, T/C [9] 100% | viability, T/C [10] 103% | viability, T/C [11] 85.5% | viability, T/C [12] 56.8% | viability, T/C (second compound 1 µM, first compound 0.949 µM) 31.4% | viability, T/C (second compound 1 µM, first compound 3 µM) 32.4% | viability, T/C [13] 89.1% | viability, T/C [14] 85.2% | viability, T/C [15] 74.9% | viability, T/C [16] 55% | viability, T/C (second compound 3.16 µM, first compound 0.949 µM) 38.4% | viability, T/C (second compound 3.16 µM, first compound 3 µM) 34.6% | viability, T/C [17] 85.1% | viability, T/C [18] 88.8% | viability, T/C [19] 67.5% | viability, T/C [20] 53.3% | viability, T/C (second compound 10 µM, first compound 0.949 µM) 35.2% | viability, T/C (second compound 10 µM, first compound 3 µM) 37%
503 nM: IC50 (second compound 0.316 µM)
302 nM: IC50 (second compound 10 µM)
397 nM: IC50 (second compound 1 µM)

Nc1ccn(C2OC(CO)C(O)C2(F)F)c(=O)n1 (stereo not given) + NC1CC1c1ccc(-c2cccc(O)c2)cc1
< 0.949 nM: IC50 (second compound 0.1 µM) | IC50 (second compound 0.316 µM) | IC50 (second compound 1 µM) | IC50 (second compound 3.16 µM) | IC50 (second compound 10 µM)
inactive: viability, T/C (second compound 0.1 µM, first compound 0.000949 µM) 25.5% | viability, T/C (second compound 0.1 µM, first compound 0.003 µM) 27.5% | viability, T/C [1] 26.3% | viability, T/C [2] 27.9% | viability, T/C [3] 24.9% | viability, T/C [4] 26.1% | viability, T/C (second compound 0.316 µM, first compound 0.000949 µM) 26.9% | viability, T/C (second compound 0.316 µM, first compound 0.003 µM) 26.6% | viability, T/C [5] 28% | viability, T/C [6] 27.6% | viability, T/C [7] 27.1% | viability, T/C [8] 28.5% | viability, T/C (second compound 1 µM, first compound 0.000949 µM) 27.1% | viability, T/C (second compound 1 µM, first compound 0.003 µM) 25% | viability, T/C [9] 24.1% | viability, T/C [10] 27.9% | viability, T/C [11] 24.8% | viability, T/C [12] 25.4% | viability, T/C (second compound 3.16 µM, first compound 0.000949 µM) 27.5% | viability, T/C (second compound 3.16 µM, first compound 0.003 µM) 28.6% | viability, T/C [13] 27.1% | viability, T/C [14] 27.9% | viability, T/C [15] 29.5% | viability, T/C [16] 25.9% | viability, T/C (second compound 10 µM, first compound 0.000949 µM) 29% | viability, T/C (second compound 10 µM, first compound 0.003 µM) 29.1% | viability, T/C [17] 28.6% | viability, T/C [18] 26.9% | viability, T/C [19] 28.9% | viability, T/C [20] 28.4%
